Laboratory results: US9115101B2 (Genentech, Inc., priority 2012, dated 2015)

target: T1, RORc ligand binding domain (Homo sapiens, UniProt P51449); assay: In Vitro RORc Ligand Binding Assay (25-[3H]hydroxycholesterol radioligand filtration); details: In Vitro RORc Ligand Binding Assay; Table 4; read-out: RORc IC50
T1 construct: host or cells: E. coli
T1 sequence (P51449 269-508 limits assumed): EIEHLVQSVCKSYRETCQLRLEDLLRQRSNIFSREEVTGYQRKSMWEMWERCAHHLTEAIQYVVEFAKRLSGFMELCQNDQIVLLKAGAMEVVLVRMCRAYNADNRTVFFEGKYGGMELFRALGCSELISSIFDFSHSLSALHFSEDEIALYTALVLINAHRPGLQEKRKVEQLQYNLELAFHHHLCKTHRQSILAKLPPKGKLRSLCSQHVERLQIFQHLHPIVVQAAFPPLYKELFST

SMILES	IC50 [µM]
O=S1(=O)C(c2ccccc2)CCCCN1Cc1ccc(N2CCC(n3cnnc3)CC2)cc1F (single isomer, unassigned) [Example 323, 2-[2-Fluoro-4-(4-[1,2,4]triazol-4-yl-piperidin-1-yl)-benzyl]-7-phenyl-[1,2]thiazepane 1,1-dioxide]	0.002
CS(=O)(=O)N1CCC(Nc2ccc(CN3CCCCC(c4ccccc4)S3(=O)=O)cc2)CC1 (single isomer, unassigned) [Example 324, [4-(1,1,-Dioxo-7-phenyl-[1,2]thiazepan-2-ylmethyl)-phenyl]-(1-methanesulfonyl-piperidin-4-yl)-amine]	0.003
O=S1(=O)C(c2ccccc2)CCCCN1Cc1ccc(N2CCC(n3cnnc3)CC2)cc1F (single isomer, unassigned) [Example 325, 2-[2-Fluoro-4-(4-[1,2,4]triazol-4-yl-piperidin-1-yl)-benzyl]-7-phenyl-[1,2]thiazepane 1,1-dioxide]	0.01
CS(=O)(=O)N1CCC(Nc2ccc(CN3CCCCC(c4ccccc4)S3(=O)=O)cc2)CC1 (single isomer, unassigned) [Example 326, [4-(1,1-Dioxo-7-phenyl-[1,2]thiazepan-2-ylmethyl)-phenyl]-(1-methanesulfonyl-piperidin-4-yl)-amine]	0.004
CC(=O)N1CCN(c2ccc(CN3C(C)CCCC(c4ccccc4)S3(=O)=O)c(F)c2)CC1 (single isomer, unassigned) [Example 327, 1-{4-[3-Fluoro-4-(3-methyl-1,1-dioxo-7-phenyl-[1,2]thiazepan-2-ylmethyl)-phenyl]-piperazin-1-yl}-ethanone]	0.003
CC(=O)N1CCN(c2ccc(CN3C(C)CCCC(c4ccccc4)S3(=O)=O)c(F)c2)CC1 (single isomer, unassigned) [Example 328, 1-{4-[3-Fluoro-4-(3-methyl-1,1-dioxo-7-phenyl-[1,2]thiazepan-2-ylmethyl)-phenyl]-piperazin-1-yl}-ethanone]	1.09
CC(=O)N1CCN(c2ccc(CN3C(C)CCCC(c4ccccc4)S3(=O)=O)c(F)c2)CC1 (single isomer, unassigned) [Example 329, 1-{4-[3-Fluoro-4-(3-methyl-1,1-dioxo-7-phenyl-[1,2]thiazepan-2-ylmethyl)-phenyl]-piperazin-1-yl}-ethanone]	0.024
CC(=O)N1CCN(c2ccc(CN3C(C)CCCC(c4ccccc4)S3(=O)=O)c(F)c2)CC1 (single isomer, unassigned) [Example 330, 1-{4-[3-Fluoro-4-(3-methyl-1,1-dioxo-7-phenyl-[1,2]thiazepan-2-ylmethyl)-phenyl]-piperazin-1-yl}-ethanone]	0.037
CC(=O)N1CCN(c2ccc(CN3CCC(C)CC(c4ccccc4)S3(=O)=O)c(F)c2)CC1 (single isomer, unassigned) [Example 331, 1-{4-[3-Fluoro-4-(5-methyl-1,1-dioxo-7-phenyl-[1,2]thiazepan-2-ylmethyl)-phenyl]-piperazin-1-yl}-ethanone]	0.022
CC(=O)N1CCN(c2ccc(CN3CCC(C)CC(c4ccccc4)S3(=O)=O)c(F)c2)CC1 (single isomer, unassigned) [Example 332, 1-{4-[3-Fluoro-4-(5-methyl-1,1-dioxo-7-phenyl-[1,2]thiazepan-2-ylmethyl)-phenyl]-piperazin-1-yl}-ethanone]	0.071
CC(=O)N1CCN(c2ccc(CN3CCC(C)CC(c4ccccc4)S3(=O)=O)c(F)c2)CC1 (single isomer, unassigned) [Example 333, 1-{4-[3-Fluoro-4-(5-methyl-1,1-dioxo-7-phenyl-[1,2]thiazepan-2-ylmethyl)-phenyl]-piperazin-1-yl}-ethanone]	0.032
CC(=O)N1CCN(c2ccc(CN3CC(C)CCC(c4ccccc4)S3(=O)=O)c(F)c2)CC1 (single isomer, unassigned) [Example 334, 1-{4-[3-Fluoro-4-(4-methyl-1,1-dioxo-7-phenyl-[1,2]thiazepan-2-ylmethyl)-phenyl]-piperazin-1-yl}-ethanone]	0.005
CC(=O)N1CCN(c2ccc(CN3CCCCC(c4ccccc4)S3(=O)=O)c(F)c2)[C@@H](C)C1 (single isomer, unassigned) [Example 335, 1-{4-[4-(1,1-Dioxo-7-phenyl-[1,2]thiazepan-2-ylmethyl)-3-fluoro-phenyl]-3-methyl-piperazin-1-yl}-ethanone]	0.008
O=S1(=O)C(c2ccccc2)CCCCN1Cc1ccc(N2CCC(n3cnnc3)CC2)cc1 (single isomer, unassigned) [Example 336, 7-Phenyl-2-[4-(4-[1,2,4]triazol-4-yl-piperidin-1-yl)-benzyl]-[1,2]thiazepane 1,1-dioxide]	0.028
O=c1[nH]nc(C2CCN(c3ccc(CN4CCCCC(c5ccccc5)S4(=O)=O)cc3)CC2)o1 (single isomer, unassigned) [Example 337, 5-{1-[4-(1,1-Dioxo-7-phenyl-[1,2]thiazepan-2-ylmethyl)-phenyl]-piperidin-4-yl}-3H-[1,3,4]oxadiazol-2-one]	0.024
CC(=O)N1CCN(c2ccc(CN3CC(C)CCC(c4ccccc4)S3(=O)=O)c(F)c2)CC1 (single isomer, unassigned) [Example 338, 1-{4-[3-Fluoro-4-(4-methyl-1,1-dioxo-7-phenyl-[1,2]thiazepan-2-ylmethyl)-phenyl]-piperazin-1-yl}-ethanone]	0.012
CC(=O)N1CCN(c2ccc(CN3CC(C)CCC(c4ccccc4)S3(=O)=O)c(F)c2)CC1 (single isomer, unassigned) [Example 339, 1-{4-[3-Fluoro-4-(4-methyl-1,1-dioxo-7-phenyl-[1,2]thiazepan-2-ylmethyl)-phenyl]-piperazin-1-yl}-ethanone]	0.015
CC(=O)N1CCN(c2ccc(CN3CC(C)CCC(c4ccccc4)S3(=O)=O)c(F)c2)CC1 (single isomer, unassigned) [Example 340, 1-{4-[3-Fluoro-4-(4-methyl-1,1-dioxo-7-phenyl-[1,2]thiazepan-2-ylmethyl)-phenyl]-piperazin-1-yl}-ethanone]	0.054
CC(=O)N1CCN(c2ccc(CN3CCCCC(c4ccccc4)S3(=O)=O)c(F)c2)[C@@H](C)C1 (single isomer, unassigned) [Example 341, 1-{4-[4-(1,1-Dioxo-7-phenyl-[1,2]thiazepan-2-ylmethyl)-3-fluoro-phenyl]-3-methyl-piperazin-1-yl}-ethanone]	0.026
O=S1(=O)C(c2ccccc2)CCCCN1Cc1ccc(N2CCC(n3cnnc3)CC2)cc1 (single isomer, unassigned) [Example 342, 7-Phenyl-2-[4-(4-[1,2,4]triazol-4-yl-piperidin-1-yl)-benzyl]-[1,2]thiazepane 1,1-dioxide]	0.075
O=c1[nH]nc(C2CCN(c3ccc(CN4CCCCC(c5ccccc5)S4(=O)=O)cc3)CC2)o1 (single isomer, unassigned) [Example 343, 5-{1-[4-(1,1-Dioxo-7-phenyl-[1,2]thiazepan-2-ylmethyl)-phenyl]-piperidin-4-yl}-3H-[1,3,4]oxadiazol-2-one]	0.449
CC(=O)N1CCN(c2ccc(CN3CCCCC(c4ccccc4)S3(=O)=O)cc2F)CC1 (single isomer, unassigned) [Example 344, 1-{4-[4-(1,1-Dioxo-7-phenyl-[1,2]thiazepan-2-ylmethyl)-2-fluoro-phenyl]-piperazin-1-yl}-ethanone]	0.032
CS(=O)(=O)N1CCC(Nc2ccc(CN3CCCCC(c4ccccc4)S3(=O)=O)c(F)c2)CC1 (single isomer, unassigned) [Example 345, [4-(1,1-Dioxo-7-phenyl-[1,2]thiazepan-2-ylmethyl)-3-fluoro-phenyl]-(1-methanesulfonyl-piperidin-4-yl)-amine]	0.008
CC(=O)N1CCN(c2ccc(CN3CCCCC(c4ccccc4)S3(=O)=O)cc2F)CC1 (single isomer, unassigned) [Example 346, 1-{4-[4 (1,1-Dioxo-7-phenyl-[1,2]thiazepan-2-ylmethyl)-2-fluoro-phenyl]-piperazin-1-yl}-ethanone]	0.05
CS(=O)(=O)N1CCC(Nc2ccc(CN3CCCCC(c4ccccc4)S3(=O)=O)c(F)c2)CC1 (single isomer, unassigned) [Example 347, [4-(1,1-Dioxo-7-phenyl-[1,2]thiazepan-2-ylmethyl)-3-fluoro-phenyl]-(1-methanesulfonyl-piperidin-4-yl)-amine]	0.005

same assay, conditions: read-out: RORc IC50

SMILES	IC50 [µM]
C[C@H]1CCC(c2ccccc2)S(=O)(=O)N1Cc1ccc(C(=O)NC2CCC(O)C2)cc1 (single isomer, unassigned) [Example 408]	3.52
C[C@H]1CCC(c2ccccc2)S(=O)(=O)N1Cc1ccc(C(=O)NC2CCC(O)C2)cc1 (single isomer, unassigned) [Example 409]	1.88
C[C@H]1CCC(c2ccccc2)S(=O)(=O)N1Cc1ccc(C(=O)NC2CCC(O)C2)cc1 (single isomer, unassigned) [Example 410]	6.5
C[C@H]1CCC(c2ccccc2)S(=O)(=O)N1Cc1ccc(C(=O)NC2CCC(O)C2)cc1 (single isomer, unassigned) [Example 411]	3.52
C[C@H]1CCC(c2ccccc2)S(=O)(=O)N1Cc1ccc(N2CCC(C)(n3cnnc3)CC2)cc1F (single isomer, unassigned) [Example 412]	0.585
C[C@H]1CCC(c2ccccc2)S(=O)(=O)N1Cc1ccc(N2CCC(C)(n3cnnc3)CC2)cc1F (single isomer, unassigned) [Example 413]	0.032
C[C@H]1CCC(c2ccccc2)S(=O)(=O)N1Cc1ccc(N2CCN3C(=O)OCC3C2)cc1F (single isomer, unassigned) [Example 418]	0.129
C[C@H]1CCC(c2ccccc2)S(=O)(=O)N1Cc1ccc(N2CCN3C(=O)OCC3C2)cc1F (single isomer, unassigned) [Example 420]	0.028
C[C@H]1CCC(c2ccccc2)S(=O)(=O)N1Cc1ccc(N2CC(n3cnnc3)C2)cc1F (single isomer, unassigned) [Example 429]	0.316
